Assay results: PMC8199001, “Design, Synthesis, and Biological Evaluation of Novel 6H-Benzo[c]chromen-6-one Derivatives as Potential Phosphodiesterase II Inhibitors” (International Journal of Molecular Sciences, 2021)
“Also recorded” adds a separate entry of the source.

Key:
PDE2 = PDE2 (Homo sapiens, UniProt O00408); assay: In vitro PDE2 enzymatic inhibition assay (Bio-cAMP substrate, AlphaScreen detection); type: biochemical;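 also: enzyme reaction run 0.5 h, then anti-cAMP acceptor and streptavidin donor beads added for 1 h in the dark before plate reading, compounds serially diluted from DMSO stock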
Sequence of PDE2 (O00408 whole entry): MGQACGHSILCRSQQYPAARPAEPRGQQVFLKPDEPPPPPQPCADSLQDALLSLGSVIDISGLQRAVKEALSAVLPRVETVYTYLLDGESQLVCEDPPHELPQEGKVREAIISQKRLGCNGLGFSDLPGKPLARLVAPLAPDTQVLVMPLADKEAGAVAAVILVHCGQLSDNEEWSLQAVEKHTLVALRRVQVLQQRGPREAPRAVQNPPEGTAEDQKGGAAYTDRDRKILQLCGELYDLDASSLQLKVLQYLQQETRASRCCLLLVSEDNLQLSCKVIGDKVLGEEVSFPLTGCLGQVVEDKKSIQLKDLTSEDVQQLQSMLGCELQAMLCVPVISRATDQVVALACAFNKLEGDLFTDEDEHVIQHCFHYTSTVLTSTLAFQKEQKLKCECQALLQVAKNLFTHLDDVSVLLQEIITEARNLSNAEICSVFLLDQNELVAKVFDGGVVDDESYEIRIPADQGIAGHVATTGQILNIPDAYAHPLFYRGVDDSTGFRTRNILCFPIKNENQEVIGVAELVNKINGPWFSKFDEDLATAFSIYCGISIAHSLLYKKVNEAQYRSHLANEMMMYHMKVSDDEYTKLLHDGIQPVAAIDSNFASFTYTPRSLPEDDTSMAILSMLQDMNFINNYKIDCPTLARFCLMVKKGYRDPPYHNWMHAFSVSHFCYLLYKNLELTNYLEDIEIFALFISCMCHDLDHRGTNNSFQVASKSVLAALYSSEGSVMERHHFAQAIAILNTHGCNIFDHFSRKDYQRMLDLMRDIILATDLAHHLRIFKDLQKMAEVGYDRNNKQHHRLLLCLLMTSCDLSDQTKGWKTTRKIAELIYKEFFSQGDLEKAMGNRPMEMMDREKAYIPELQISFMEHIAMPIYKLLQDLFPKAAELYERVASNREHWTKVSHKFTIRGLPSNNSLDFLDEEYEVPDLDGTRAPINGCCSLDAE
Description: Preparation of 1*Rection Buffer: we took 1 mL 10*Rection Buffer, added 9 mL ultra-pure water to swirl and mix well, and put it on ice; preparation of PDE2 solution: 210 μL of 1*Rection Buffer were added into a centrifuge tube, then 30 μL PDE2 were added, mixed well, equal to 8-times dilution, and placed on ice; preparation of compound solution with gradient concentration: DMSO was used as the solvent to prepare 10 mM compound solution, and then diluted with 1*Rection Buffer.
We took 2 μL of the diluted compound solution of each concentration into the microplate, added 4 μL PDE2 solution, numbered them A1–A9, added 2 μL 1*Rection Buffer and 4 μL PDE2 into A10, added 2 μL compound solution and 4 μL 1*Rection Buffer to A11, added 6 μL 1*Rection Buffer to A13, and ensured the three groups are parallel to each other. […] The reaction time was 0.5 h in the microporous plate thermostatic oscillator.
Anti-Camp Alohascreen Acceptor and Streptavidin Coated Donor Bead were purchased from Perkin Elmer Company according to response volume: 1* Immunoassay Buffer 549.32 μL and 3.70 μL anti-cAMP AlohaScreen Acceptor were collected under dark conditions. We took 1.98 μL Streptavidin coated Donor Bead, mixed well, added 15 μL mixture to each well after 1 h reaction, and reacted it in the dark for 1 h. After the reaction, we tested it with multilabel microplate detector.

HT-22 cells = assay: Protection of HT-22 cells against corticosterone-induced neurotoxicity (cell viability); type: cell-based
Text: Corticosterone can induce PDE2A, PDE3B, PDE4A, PDE4D, PDE10, and PDE11 expression in HT-22 cells, which results in significant cell lesion. Thus, corticosterone-induced HT-22 neurotoxicity was generally employed as classical cell model to screen PDE-inhibitors for curing neurodegenerative disease, such as AD and PD.
To determine whether compound 1f could promote neuron proliferation and protect HT-22 cells against corticosterone-induced neurotoxicity by PDE2 inhibition, the viability of HT-22 cells was measured in the presence of 100 μM corticosterone (positive control), corticosterone absence (control), and different concentrations of 1f.
We added 943 µL of DMSO solution to 8.2 mg of dexamethasone acetate to obtain a 20 mM stock solution, froze it at −20 °C, and diluted it to 2 mM with serum-containing medium before use. The test compound was dissolved in DMSO to obtain a 20 mM stock solution and stored at −20 °C. Diluted with serum-containing medium to a concentration of 2 × 100, 2 × 50, 2 × 25, 2 × 12.5, 2 × 6.25, 2 × 3.125 μM before use.
After resuscitation, HT-22 cells were cultured in DMEM medium (containing 10% FBS) at 37 °C with 5% CO2. After the cells grew to more than 80% cell fusion, we passaged and seeded the plate, and the density of each well should be 10,000 cells/100 μL/well and cultured for 24 h. After the cells adhered to the wall, drug intervention was given.
10 µL solution of 2 mM dexamethasone acetate was cultured at 37 °C for 30 min. 100 µL drug solution of 2 × 100, 2 × 50, 2 × 25, 2 × 12.5, 2 × 6.25, and 2 × 3.125 μM were added to make the final concentration of dexamethasone acetate 100 μM, and the final concentrations of the drug were 100, 50, 25, 12.5, 6.25, 3.125 μM. After preparation, it took another 24 h to continue the culture. […]
After the incubation, 50 µL of MTT was added to each well, and it needed another 4 h to incubate. […] Finally, the wavelength A 490 was measured. The data were expressed as mean ± sd (n = 5), and one-way anova analysis of variance was used for data statistics; p < 0.05 is defined as a significant difference.

Compound: CCCCOc1ccc2c(c1)oc(=O)c1ccccc12 [Compound 1f, 3-butoxy-6H-benzo[c]chromen-6-one]
- melting point: 53.6 to 55.5 °C
- PDE2 inhibitory activity (result in words) (PDE2; enzyme level): good PDE2 inhibitory activity
- IC50 (PDE2; in vitro, Bio-cAMP as substrate, mean of at least three experiments): 3.67 ± 0.47 µM
- Cell viability of HT-22 cells exposed to corticosterone (result in words) (HT-22 cells; 100 μM corticosterone, compound 6.25~25 μM, 24 h, dose-dependent): protected cells against corticosterone (CORT)-induced cytotoxicity in a concentration-dependent manner; also recorded: significantly increased cell viability; also recorded: protect HT-22 cells from corticosterone-induced death
- Best concentration for increasing HT-22 cell viability (HT-22 cells; 100 μM corticosterone, p < 0.01): 12.5 µM
- Protective effect on HT-22 cells compared with BAY 60-7550 (HT-22 cells; comparison with BAY 60-7550 at 1.0 μM): similar; also recorded: comparable activity
